Data reported in article PMC7954794, “Protein context shapes the specificity of SH3 domain-mediated interactions in vivo” (Nature Communications, 2021).

Test system: 575 putative partners (preys) of 22 WT SH3-containing proteins
Experiment: DHFR-PCA on solid medium, WT and SH3-deleted baits (Fig. 1B)
Assay type: cell-based, Saccharomyces cerevisiae
Set-up: key to Score: 0: SH3-independent; 1: SH3-dependent PPIs; 2: SH3-inhibited PPIs
Conditions: for SH3-dependent PPIs: number of PPIs, SH3 domain in its own protein, DHFR-PCA, Fig2D,S2F
Method in brief: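 Interactions scored by DHFR protein-fragment complementation on solid medium using robotic pinning; preys (DHFR F[3] fusions) arrayed in duplicate with control borders. Baits carried C-terminal DHFR F[1,2]-FLAG tags, tested as wild type and as SH3-deleted versions carrying a flexible Gly/Ser stuffer.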

Row | Substance | SH3-dependent PPIs | medrep (log2 median colony size normalized to plate background, PCA score) (bait SLA1-3, DHFR-PCA, label = prey, Replicates 4 (2 for YCR009C, YDR388W, YIL033C)) | Score (bait SLA1-3, label = prey)
1 | RVS167 | 31 | – | –
2 | CDC25 | 3 | – | –
3 | YAL005C | – | 5.601 | 0
